{"source": "patent US5093359A", "about": "“Primycin components and process for the separation of the antibiotic complex” (priority 1984, dated 1992)", "key": {"[1]": {"test_system": "Micrococcus flavus ATCC.10240.", "experiment": "MIC, strain 19", "format": "cell-based", "conditions": "read-out: MIC"}, "[2]": {"test_system": "Micrococcus luteus DSM.20030.", "experiment": "MIC, strain 20", "format": "cell-based", "conditions": "read-out: MIC"}, "[3]": {"test_system": "Pseudomonas aeruginosa CCM.1960.", "experiment": "MIC, strain 22", "conditions": "24 h", "method": "(§1) The antimicrobial activity of the primycin complex and the components thereof is tested on different microorganism strains.\n(§2) (Inoculation: 5 × 10^5 /ml, incubation at 37 C.° for"}, "[4]": {"test_system": "Staphylococcus epidermidis CCM.2271", "experiment": "MIC, strain 7", "format": "cell-based", "conditions": "read-out: MIC"}, "[5]": {"test_system": "Bacillus subtilis CCM.1718.", "experiment": "MIC, strain 17", "format": "cell-based", "conditions": "24 h, strain 17, Table O, 24 hours, read-out: MIC"}, "[6]": {"test_system": "Pseudomonas fluorescens CCM.2115.", "experiment": "MIC, strain 23", "conditions": "24 h", "method": "as §1, §2"}, "[7]": {"test_system": "Salmonella typhimurium CCM.5445.", "experiment": "MIC, strain 27", "conditions": "Salmonella enterica, 24 h", "method": "(§3) The table contains the MIC values (/μg/ml) measured on human pathogenic polyresistant strains.\nas §1, §2"}, "[8]": {"test_system": "Listeria monocytogenes CCM.5576.", "experiment": "MIC, strain 18", "format": "cell-based", "conditions": "read-out: MIC"}, "[9]": {"test_system": "Bacillus cereus CCM.2010.", "experiment": "MIC, strain 14", "format": "cell-based", "conditions": "read-out: MIC"}, "[10]": {"test_system": "Streptococcus agalactiae CCM.5534.", "experiment": "MIC, strain 11", "format": "cell-based"}, "[11]": {"test_system": "Streptococcus disgalactiae ATTC.9926", "experiment": "MIC, strain 12", "format": "cell-based"}, "[12]": {"test_system": "Staphylococcus aureus Smith", "experiment": "MIC, strain 8", "format": "cell-based", "conditions": "read-out: MIC"}, "[13]": {"test_system": "Escherichia coli DSM.30038.", "experiment": "MIC, strain 28", "conditions": "24 h", "method": "as §3, §1, §2"}, "[14]": {"test_system": "Shigella sonnei CCM.1373.", "experiment": "MIC, strain 26", "conditions": "24 h", "method": "as §3, §1, §2"}, "[15]": {"test_system": "Staphylococcus aureus CCM.2514", "experiment": "MIC, strain 5", "format": "cell-based", "conditions": "read-out: MIC"}, "[16]": {"test_system": "Staphylococcus aureus CCM.2317.", "experiment": "MIC, strain 3", "format": "cell-based", "conditions": "read-out: MIC"}, "[17]": {"test_system": "Bacillus licheniformis CCM.2205.", "experiment": "MIC, strain 16", "format": "cell-based", "conditions": "read-out: MIC"}, "[18]": {"test_system": "Streptococcus agalactiae CCM.5153.", "experiment": "MIC, strain 10", "format": "cell-based", "conditions": "read-out: MIC"}, "[19]": {"test_system": "Staphylococcus aureus CCM.885.", "experiment": "MIC, strain 1", "format": "cell-based", "conditions": "read-out: MIC"}, "[20]": {"test_system": "Pseudomonas acidoverans CCM.283", "experiment": "MIC, strain 24", "conditions": "CCM.283, 24 h", "method": "as §1, §2"}, "[21]": {"test_system": "Staphylococcus aureus CCM.2515.", "experiment": "MIC, strain 6", "format": "cell-based", "conditions": "read-out: MIC"}, "[22]": {"test_system": "Streptococcus faecalis CCM.1875.", "experiment": "MIC, strain 9", "format": "cell-based", "conditions": "Enterococcus faecalis, read-out: MIC"}, "[23]": {"test_system": "Sporosarcina ureae DSM.317", "experiment": "MIC, strain 21", "conditions": "DSM.317, 24 h", "method": "as §1, §2"}, "[24]": {"test_system": "Bacillus subtilis ATTC.6633.", "experiment": "MIC, strain 13", "format": "cell-based", "conditions": "read-out: MIC"}, "[25]": {"test_system": "Staphylococcus aureus DSM.20231", "experiment": "MIC, strain 2", "format": "cell-based"}, "[26]": {"test_system": "Staphylococcus aureus CCM.2326.", "experiment": "MIC, strain 4", "format": "cell-based", "conditions": "read-out: MIC"}, "[27]": {"test_system": "Proteus vulgaris CCM.1799.", "experiment": "MIC, strain 25", "conditions": "24 h", "method": "as §1, §2"}, "[28]": {"test_system": "Bacillus licheniformis CCM.2182.", "experiment": "MIC, strain 15", "format": "cell-based", "conditions": "read-out: MIC"}}, "note": "Like-named read-outs stand apart in the source and are kept apart here.", "data": [{"molecule": "CCCCC1C(=O)OC(C(C)C(O)CCCNC(=N)N)C(C)C=C(C)CCCCC(O)CC(O)CC(O)CC(O)CC(O)C(O)C=C(C)C(O)CCCC(O)CCCC(O)CCC(C)C1O", "note": "(stereo not shown) [C1, oxypricin]", "values": [{"measurement": "MIC", "setting": "[1]; strain 19, Table O, 24 hours", "value": 0.01, "unit": "µg/mL"}, {"measurement": "MIC", "setting": "[1]; strain 19, Tables I-XIII, 25 hours", "value": 0.01, "unit": "µg/mL"}, {"measurement": "MIC", "setting": "[2]; strain 20, Table O, 24 hours", "value": 0.01, "unit": "µg/mL"}, {"measurement": "MIC", "setting": "[2]; strain 20, Tables I-XIII, 25 hours", "value": 0.01, "unit": "µg/mL"}, {"measurement": "MIC", "setting": "[3]", "value": 25, "unit": "µg/mL"}, {"measurement": "MIC", "setting": "[4]; CCM.2271, strain 7, Table O, 24 hours", "value": 0.025, "unit": "µg/mL"}, {"measurement": "MIC", "setting": "[4]; CCM.2271, strain 7, Tables I-XIII, 25 hours", "value": 0.025, "unit": "µg/mL"}, {"measurement": "MIC", "setting": "[5]", "value": 0.05, "unit": "µg/mL"}, {"measurement": "MIC", "setting": "[6]", "value": 25, "unit": "µg/mL"}, {"measurement": "MIC", "setting": "[7]", "value": 50, "unit": "µg/mL"}, {"measurement": "MIC", "setting": "[8]; strain 18, Table O, 24 hours", "value": 0.075, "unit": "µg/mL"}, {"measurement": "MIC", "setting": "[8]; strain 18, Tables I-XIII, 25 hours", "value": 0.075, "unit": "µg/mL"}, {"measurement": "MIC", "setting": "[9]; 24 h, strain 14, Table O, 24 hours", "value": 0.025, "unit": "µg/mL"}, {"measurement": "MIC", "setting": "[9]; 25 h, strain 14, Tables I-XIII, 25 hours", "value": 0.025, "unit": "µg/mL"}, {"measurement": "MIC", "setting": "[10]; Streptococcus agalactiae, CCM.5534., 24 h, strain 11, Table O, 24 hours, read-out: MIC", "value": 0.25, "unit": "µg/mL"}, {"measurement": "MIC", "setting": "[10]; Streptococcus agalactiae, CCM.5534., 25 h, strain 11, Tables I-XIII, 25 hours, read-out: MIC", "value": 0.25, "unit": "µg/mL"}, {"measurement": "MIC", "setting": "[10]; strain 11, Tables I-XIII, 25 hours", "value": 0.2, "unit": "µg/mL"}, {"measurement": "MIC", "setting": "[11]; ATTC.9926, 24 h, strain 12, Table O, 24 hours", "value": 0.5, "unit": "µg/mL"}, {"measurement": "MIC", "setting": "[11]; ATTC.9926, 25 h, strain 12, Tables I-XIII, 25 hours", "value": 0.5, "unit": "µg/mL"}, {"measurement": "MIC", "setting": "[12]; strain 8, Table O, 24 hours", "value": 0.05, "unit": "µg/mL"}, {"measurement": "MIC", "setting": "[12]; strain 8, Tables I-XIII, 25 hours", "value": 0.05, "unit": "µg/mL"}, {"measurement": "MIC", "setting": "[13]", "value": 50, "unit": "µg/mL"}, {"measurement": "MIC", "setting": "[14]", "value": 50, "unit": "µg/mL"}, {"measurement": "MIC", "setting": "[15]; CCM.2514, strain 5, Table O, 24 hours", "value": 0.05, "unit": "µg/mL"}, {"measurement": "MIC", "setting": "[15]; CCM.2514, strain 5, Tables I-XIII, 25 hours", "value": 0.05, "unit": "µg/mL"}, {"measurement": "MIC", "setting": "[16]; strain 3, Table O, 24 hours", "value": 0.05, "unit": "µg/mL"}, {"measurement": "MIC", "setting": "[16]; strain 3, Tables I-XIII, 25 hours", "value": 0.05, "unit": "µg/mL"}, {"measurement": "MIC", "setting": "[17]; strain 16, Table O, 24 hours", "value": 0.025, "unit": "µg/mL"}, {"measurement": "MIC", "setting": "[17]; strain 16, Tables I-XIII, 25 hours", "value": 0.025, "unit": "µg/mL"}, {"measurement": "MIC", "setting": "[18]; strain 10, Table O, 24 hours", "value": 0.075, "unit": "µg/mL"}, {"measurement": "MIC", "setting": "[18]; strain 10, Tables I-XIII, 25 hours", "value": 0.075, "unit": "µg/mL"}, {"measurement": "MIC", "setting": "[19]; strain 1, Table O, 24 hours", "value": 0.075, "unit": "µg/mL"}, {"measurement": "MIC", "setting": "[19]; strain 1, Tables I-XIII, 25 hours", "value": 0.075, "unit": "µg/mL"}, {"measurement": "MIC", "setting": "[20]", "value": 25, "unit": "µg/mL"}, {"measurement": "MIC", "setting": "[21]; strain 6, Table O, 24 hours", "value": 0.025, "unit": "µg/mL"}, {"measurement": "MIC", "setting": "[21]; strain 6, Tables I-XIII, 25 hours", "value": 0.025, "unit": "µg/mL"}, {"measurement": "MIC", "setting": "[22]; strain 9, Table O, 24 hours", "value": 0.75, "unit": "µg/mL"}, {"measurement": "MIC", "setting": "[22]; strain 9, Tables I-XIII, 25 hours", "value": 0.75, "unit": "µg/mL"}, {"measurement": "MIC", "setting": "[23]", "value": 0.01, "unit": "µg/mL"}, {"measurement": "MIC", "setting": "[24]; 24 h, strain 13, Table O, 24 hours", "value": 0.025, "unit": "µg/mL"}, {"measurement": "MIC", "setting": "[24]; 25 h, strain 13, Tables I-XIII, 25 hours", "value": 0.025, "unit": "µg/mL"}, {"measurement": "MIC", "setting": "[25]; Staphylococcus aureus, DSM.20231, 24 h, strain 2, Table O, 24 hours, read-out: MIC", "value": 0.05, "unit": "µg/mL"}, {"measurement": "MIC", "setting": "[25]; Staphylococcus aureus, DSM.20231, 25 h, strain 2, Tables I-XIII, 25 hours, read-out: MIC", "value": 0.05, "unit": "µg/mL"}, {"measurement": "MIC", "setting": "[25]; strain 2, Tables I-XIII, 25 hours", "value": 0.1, "unit": "µg/mL"}, {"measurement": "MIC", "setting": "[26]; strain 4, Table O, 24 hours", "value": 0.05, "unit": "µg/mL"}, {"measurement": "MIC", "setting": "[26]; strain 4, Tables I-XIII, 25 hours", "value": 0.05, "unit": "µg/mL"}, {"measurement": "MIC", "setting": "[27]", "value": 50, "unit": "µg/mL"}, {"measurement": "MIC", "setting": "[28]; strain 15, Table O, 24 hours", "value": 0.025, "unit": "µg/mL"}, {"measurement": "MIC", "setting": "[28]; strain 15, Tables I-XIII, 25 hours", "value": 0.025, "unit": "µg/mL"}]}]}
